Data as given in patent US8754226B2, “Piperidinyl-substituted lactams as GPR119 modulators” (Array BioPharma Inc., priority 2010, dated 2014).

Tested on: modified version of the GPR119 receptor (94% identity to human receptor)
Test: cAMP production assay (LANCE cAMP kit, TR-FRET) in HEK-293 cells
Assay type: cell-based
Details: for cAMP production in HEK-293 cells: HEK-293 cells stably expressing modified GPR119, test compounds 0.2 nM to 10 μM, one-hour incubation at ambient temperature; for Fold over baseline: increase in cAMP relative to basal levels, agonist activity if 1.5-fold or greater
Procedure: The assay utilized HEK-293 cells that stably express a modified version of the GPR119 receptor (94% identity to human receptor), under the control of a CMV promoter containing a tet-on element for tetracycline-inducible expression. GPR119 agonist-induced cyclic AMP (cAMP) production was measured in this cell line using the LANCE cAMP kit (Perkin Elmer, Waltham, Mass.). To generate a working stock of cells for the assay, cells were treated overnight with 1 μg/mL doxycycline at 37° C. in the presence of 5% CO2 to induce receptor expression. Cells were then harvested by enzymatic dissociation with 0.05% trypsin, resuspended in freezing medium (DMEM growth medium with 10% each of fetal bovine serum and DMSO), aliquoted and frozen at −80° C. On the day of the assay, frozen cells were thawed, washed 1× in PBS and resuspended in Hank's buffered salt solution (HBSS) containing 5 mM HEPES, 0.1% BSA and Alexa Fluor 647-conjugated anti-cAMP antibody (diluted 1:100). The cell suspension was then transferred to a Proxiplate Plus white 384-well assay plate (Perkin-Elmer) at 2000 cells/well. Test compounds at final concentrations ranging from 0.2 nM to 10 μM were added to the assay plate, followed by a one-hour incubation at ambient temperature (volume=10 μL/well). DMSO concentration was held constant at 0.5%. After incubation with test compounds, 10 μL of a detergent buffer containing a biotinylated cAMP/Europium-conjugated streptavidin complex (Europium-labeled cAMP tracer) were added to each well on the assay plate, followed by a 2-hour incubation at ambient temperature. During this incubation cAMP released from lysed cells competes with the Europium-labeled cAMP tracer for binding to the Alexa Fluor 647-conjugated antibody. […] Cellular cAMP levels were then determined by interpolation of raw signal data using a cAMP standard curve. Compounds were determined to have agonist activity if they stimulated a 1.5-fold or greater increase in cAMP relative to basal levels.

SMILES | cAMP production in HEK-293 cells | Fold over baseline
CS(=O)(=O)c1cc(F)c(N[C@H]2CCN(C3CCN(c4ccc(C(F)(F)F)cn4)CC3)C2=O)cc1F [Example 100, (S)-3-(2,5-difluoro-4-(methylsulfonyl)phenylamino)-1-(1-(5-(trifluoromethyl)pyridin-2-yl)piperidin-4-yl)pyrrolidin-2-one] | 8.4 nmol | 2.6
CS(=O)(=O)c1cc(F)c(N[C@H]2CCN(C3CCN(c4ncc(Cl)cc4Cl)CC3)C2=O)c(F)c1 [Example 110, (S)-1-(1-(3,5-dichloropyridin-2-yl)piperidin-4-yl)-3-(2,6-difluoro-4-(methylsulfonyl)phenyl-amino)pyrrolidin-2-one] | 29.3 nmol | 2.3
CS(=O)(=O)c1ccc(N[C@H]2CCN(C3CCN(c4ncc(Cl)cc4Cl)CC3)C2=O)c(F)c1 [Example 109, (S)-1-(1-(3,5-dichloropyridin-2-yl)piperidin-4-yl)-3-(2-fluoro-4-(methylsulfonyl)phenyl-amino)pyrrolidin-2-one] | 15.8 nmol | 2.9
CS(=O)(=O)c1cc(F)c(O[C@H]2CCCN(C3CCN(c4cnc(Cl)cn4)CC3)C2=O)cc1F [Example 164, (S)-1′-(5-chloropyrazin-2-yl)-3-(2,5-difluoro-4-(methylsulfonyl)phenoxy)-[1,4′-bipiperidin]-2-one] | 21.6 nmol | 4.3
CS(=O)(=O)c1ccc(N[C@H]2CCN(C3CCN(c4cnccn4)CC3)C2=O)c(F)c1 [Example 106, (S)-3-(2-fluoro-4-(methylsulfonyl)phenyl-amino)-1-(1-(pyrazin-2-yl)piperidin-4-yl)pyrrolidin-2-one] | 17.8 nmol | 3.0
CS(=O)(=O)c1ccc(N[C@H]2CCN(C3CCN(c4ncc(C(F)(F)F)cc4Cl)CC3)C2=O)c(F)c1 [Example 107, (S)-1-(1-(3-chloro-5-(trifluoromethyl)pyridin-2-yl)piperidin-4-yl)-3-(2-fluoro-4-(methylsulfonyl)phenylamino)pyrrolidin-2-one] | 20.9 nmol | 3.2
CCc1cnc(N2CCC(N3CCC[C@H](Nc4ccc(S(C)(=O)=O)c(Cl)c4)C3=O)CC2)nc1 [Example 56, (S)-3-(3-chloro-4-(methylsulfonyl)phen-ylamino)-1′-(5-ethylpyrimidin-2-yl)-[1,4′-bipiperidin]-2-one] | 18.0 nmol | 2.4
CS(=O)(=O)c1ccc(N[C@H]2CCCN(C3CCN(c4ncc(C(F)(F)F)cc4Cl)CC3)C2=O)c(F)c1 [Example 145, (S)-1′-(3-chloro-5-(trifluoromethyl)pyridin-2-yl)-3-(2-fluoro-4-(methylsulfonyl)phenyl-amino)-1,4′-bipiperidin-2-one] | 28.3 nmol | 2.1
CCc1cnc(N2CCC(N3CCC[C@H](Nc4cc5c(cc4F)S(=O)(=O)CC5)C3=O)CC2)nc1 [Example 73, (S)-1′-(5-ethylpyrimidin-2-yl)-3-((6-fluoro-1,1-dioxido-2,3-dihydrobenzo[b]thiophen-5-yl)amino)-[1,4′-bipiperidin]-2-one] | 14.4 nmol | 3.0
CC1(C)CN(c2cnc(Cl)cn2)CCC1N1CC[C@H](Nc2ccc(S(C)(=O)=O)cc2F)C1=O (stereo partly drawn) [Example 162, (3S)-1-(1-(5-chloropyrazin-2-yl)-3,3-dimethylpiperidin-4-yl)-3-(2-fluoro-4-(methylsulfonyl)phenylamino)pyrrolidin-2-one] | 16.2 nmol | 2.8
Cc1cc(N[C@H]2CCN(C3CCN(c4ncc(Cl)cc4F)CC3)C2=O)cnc1S(C)(=O)=O [Example 120, (S)-1-(1-(5-chloro-3-fluoropyridin-2-yl)piperidin-4-yl)-3-(5-methyl-6-(methylsulfonyl)pyridin-3-ylamino) pyrrolidin-2-one] | 18.6 nmol | 3.8
